One series can be described thus: CHI Log D procedure. In kind it is physicochemical.
Another series is described as follows: Solubility in PBS. In kind it is physicochemical. Put shortly:
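Steps: ultracentrifuge the peptide PBS solution, inject the supernatant on HPLC, inject a 50 μM peptide DMSO solution as reference, then calculate solubility as area ratio (PBS/DMSO) × 50 uM.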

In series [1] the target is T1, full-length beta-Catenin (Uniprot ID P35222) (Homo sapiens, UniProt P35222).
T1 construct: 10 nM full-length beta-Catenin (Uniprot ID P35222)
T1 sequence (P35222 1-781): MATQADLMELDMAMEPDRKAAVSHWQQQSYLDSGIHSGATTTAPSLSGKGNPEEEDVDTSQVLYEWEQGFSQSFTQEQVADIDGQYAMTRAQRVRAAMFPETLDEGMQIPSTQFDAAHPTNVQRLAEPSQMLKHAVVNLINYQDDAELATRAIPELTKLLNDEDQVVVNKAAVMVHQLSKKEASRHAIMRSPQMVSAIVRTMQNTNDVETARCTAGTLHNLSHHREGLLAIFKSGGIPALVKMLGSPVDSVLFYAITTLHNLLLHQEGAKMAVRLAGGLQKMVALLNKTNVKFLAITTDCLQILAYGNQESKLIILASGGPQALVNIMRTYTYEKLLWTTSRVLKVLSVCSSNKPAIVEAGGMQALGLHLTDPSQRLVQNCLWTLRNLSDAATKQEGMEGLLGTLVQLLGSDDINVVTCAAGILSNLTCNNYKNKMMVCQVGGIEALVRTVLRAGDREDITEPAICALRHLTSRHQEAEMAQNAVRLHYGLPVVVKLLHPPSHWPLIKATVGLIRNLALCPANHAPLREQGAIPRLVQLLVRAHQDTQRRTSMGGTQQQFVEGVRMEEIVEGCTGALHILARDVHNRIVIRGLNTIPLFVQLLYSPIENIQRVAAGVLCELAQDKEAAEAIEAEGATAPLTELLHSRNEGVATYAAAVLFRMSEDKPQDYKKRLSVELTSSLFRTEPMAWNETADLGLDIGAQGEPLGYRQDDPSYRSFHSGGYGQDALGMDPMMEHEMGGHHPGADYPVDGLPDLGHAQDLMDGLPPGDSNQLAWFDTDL
The series can be described thus: Fluorescence polarization IC50 (beta-catenin / 5FAM-TCF4 10-53 competition). In kind it is binding.

Where [2] appears, read: read-out: FP EC50, fluorescence polarization, beta-catenin.
Where [3] appears, read: FP EC50 (nM), fluorescence polarization, beta-catenin.
Setting [4] is: fluorescence polarization, beta-catenin, read-out: FP EC50.

Here are results for eleven compounds from patent US20240116985A1, “STAPLED PEPTIDES AND METHODS THEREOF” (priority 2020, published 2024).

Each structure is given as a SMILES string. Values after ≈ are worked out from the molar mass of the structure shown. Read-outs that look alike come from different tables or passages of the source.

A word on the Solubility: it is the concentration that dissolves in the medium under given conditions. A lower Solubility goes with a poorly soluble substance. For `C[C@@H]1NC(=O)[C@H](C)NC(=O)[C@H](CC(=O)O)NC(=O)[C@H](CC(=O)O)NC(=O)C2(CCCC=CCCCCCC[C@@](C)(C(=O)N[C@@H](Cc3ccsc3)C(=O)N[C@@H](Cc3csc4ccccc34)C(=O)N[C@@H](CCC(N)=O)C(N)=O)NC(=O)[C@H](CC(N)=O)NC(=O)[C@H](Cc3ccccc3)NC1=O)CCCC=CC[C@]1(CCCN1C(=O)CN=[N+]=[N-])C(=O)N[C@@H](CC(=O)O)C(=O)N[C@@H](CC(C)(C)C)C(=O)N2` (stereo partly drawn) [I-1052, AzAc-PL3-Asp-Npg-B5-Asp-Asp-Ala-Ala-Phe-Asn-S8-3Thi-BztA-Gln-NH2], in “CHI Log D procedure” (pH 7.4), the “CHI Log D” value is 2.334. The “Solubility” value in the series “Solubility in PBS” came to 33 µM (≈ 63.2 µg/mL). The IC50 in series [1] (setting [2]) stood at 9 nM.

The term chromatographic logD denotes lipophilicity estimated from chromatographic retention. A low value points to lower lipophilicity. `C[C@@H]1NC(=O)[C@H](C)NC(=O)[C@H](CC(=O)O)NC(=O)[C@H](CC(=O)O)NC(=O)C2(CCCC=CCCCOC(=O)N3CC[C@@](C(=O)N[C@@H](Cc4ccccc4)C(=O)N[C@@H](Cc4csc5ccccc45)C(=O)N[C@@H](Cc4c[nH]cn4)C(N)=O)(C3)NC(=O)[C@H](CC(N)=O)NC(=O)[C@H](Cc3ccccc3)NC1=O)CCCC=CC[C@]1(CCCN1C(=O)CN=[N+]=[N-])C(=O)N[C@@H](CC(=O)O)C(=O)N[C@@H](CC(C)(C)C)C(=O)N2` (stereo partly drawn) [I-1055, AzAc-PL3-Asp-Npg-B5-Asp-Asp-Ala-Ala-Phe-Asn-PyrS2-Phe-BztA-His-NH2] returned a chromatographic logD in the series “CHI Log D procedure” (pH 7.4) of 2.11. For the same compound, the “Solubility” value in “Solubility in PBS” is 10 µM (≈ 19.6 µg/mL). In series [1] (setting [3]), this compound gave an IC50 of 7 nM.

For `C[C@@H]1NC(=O)[C@H](C)NC(=O)[C@H](CN(CC(=O)O)CC(F)(F)F)NC(=O)[C@H](Cc2ccsc2)NC(=O)C2(CCCC=CCCCOC(=O)N3CC[C@@](C(=O)N[C@@H](CC(=O)O)C(=O)N[C@@H](Cc4csc5ccccc45)C(=O)N[C@@H](CCC(N)=O)C(N)=O)(C3)NC(=O)[C@H](CC(N)=O)NC(=O)[C@H](Cc3ccccc3)NC1=O)CCCC=CC[C@]1(CCCN1C(=O)CN=[N+]=[N-])C(=O)N[C@@H](CC(=O)O)C(=O)N[C@@H](CC(C)(C)C)C(=O)N2` (stereo partly drawn) [I-1056, AzAc-PL3-Asp-Npg-B5-3Thi-TfeGA-Ala-Ala-Phe-Asn-PyrS2-Asp-BztA-Gln-NH2], the “CHI Log D” value in the series “CHI Log D procedure” (pH 7.4) is recorded as 1.929. Besides, the “Solubility” value in the series “Solubility in PBS” came to 41 µM (≈ 84.9 µg/mL). In series [1] (setting [2]), the IC50 was 6490 nM.

For `C[C@@H]1NC(=O)[C@H](C)NC(=O)[C@H](CN(CC(=O)O)CC(F)(F)F)NC(=O)[C@H](Cc2ccsc2)NC(=O)C2(CCCC=CCCCOC(=O)N3CC[C@@](C(=O)N[C@@H](CC(=O)O)C(=O)N[C@@H](Cc4csc5ccccc45)C(=O)N[C@@H](CCC(N)=O)C(N)=O)(C3)NC(=O)[C@H](CC(N)=O)NC(=O)[C@H](Cc3ccccc3)NC1=O)CCCC=CC[C@]1(CCCN1C(=O)CN=[N+]=[N-])C(=O)N[C@@H](CC(=O)O)C(=O)N[C@@H](CC(C)(C)C)C(=O)N2` (stereo partly drawn) [I-1057, AzAc-PL3-Asp-Npg-B5-3Thi-TfeGA-Ala-Ala-Phe-Asn-PyrS2-Asp-BztA-Gln-NH2], the “CHI Log D” value in the series “CHI Log D procedure” (pH 7.4) worked out at 1.92. The “Solubility” value in “Solubility in PBS” is 50 µM (≈ 104 µg/mL). In addition, in series [1] (setting [2]), the IC50 came out at 6640 nM.

In “CHI Log D procedure” (pH 7.4), `C[C@@H]1NC(=O)[C@H](C)NC(=O)[C@H](CC(=O)O)NC(=O)[C@H](CC(=O)O)NC(=O)C2(CCCC=CCCCOC(=O)N3CC[C@@](C(=O)N[C@@H](Cc4ccsc4)C(=O)N[C@@H](Cc4csc5ccccc45)C(=O)N[C@@H](C(N)=O)[C@H](C)O)(C3)NC(=O)[C@H](CC(N)=O)NC(=O)[C@H](Cc3ccccc3)NC1=O)CCCC=CC[C@]1(CCCN1C(=O)CN=[N+]=[N-])C(=O)N[C@@H](CC(=O)O)C(=O)N[C@@H](CC(C)(C)C)C(=O)N2` (stereo partly drawn) [I-1058, AzAc-PL3-Asp-Npg-B5-Asp-Asp-Ala-Ala-Phe-Asn-PyrS2-3Thi-BztA-dThr-NH2] came in with a chromatographic logD of 2.25. The Solubility in “Solubility in PBS” was found to be 42 µM (≈ 81.2 µg/mL). In series [1] (setting [3]), this compound displayed an IC50 of 14 nM.

With `C[C@@H]1NC(=O)[C@H](C)NC(=O)[C@H](CN(CC(=O)O)CC(F)(F)F)NC(=O)[C@H](CC(=O)O)NC(=O)C2(CCCC=CCCCOC(=O)N3CC[C@@](C(=O)N[C@@H](Cc4ccccc4Cl)C(=O)N[C@@H](Cc4csc5ccccc45)C(=O)N[C@@H](CCC(N)=O)C(N)=O)(C3)NC(=O)[C@H]([C@@H](C)O)NC(=O)[C@H](Cc3ccccc3)NC1=O)CCCC=CC[C@]1(CCCN1C(=O)CN=[N+]=[N-])C(=O)N[C@@H](CC(=O)O)C(=O)N[C@@H](CC(C)(C)C)C(=O)N2` (stereo partly drawn) [I-1059, AzAc-PL3-Asp-Npg-B5-Asp-TfeGA-Ala-Ala-Phe-Thr-PyrS2-2C1F-BztA-Gln-NH2], in the series “CHI Log D procedure” (pH 7.4), the chromatographic logD was 2.44. In the series “Solubility in PBS”, this compound displayed a Solubility of 42 µM (≈ 87.6 µg/mL). The IC50 in series [1] (setting [3]) worked out at 42 nM.

For the compound `C[C@@H]1NC(=O)[C@H](C)NC(=O)[C@H](CC(=O)O)NC(=O)[C@H](CC(=O)O)NC(=O)C2(CCCC=CCCCOC(=O)N3CC[C@@](C(=O)N[C@@H](Cc4ccccc4Cl)C(=O)N[C@@H](Cc4csc5ccccc45)C(=O)N[C@@H](C(N)=O)[C@H](C)O)(C3)NC(=O)[C@H]([C@@H](C)O)NC(=O)[C@H](Cc3ccccc3)NC1=O)CCCC=CC[C@]1(CCCN1C(=O)CN=[N+]=[N-])C(=O)N[C@@H](CC(=O)O)C(=O)N[C@@H](CC(C)(C)C)C(=O)N2` (stereo partly drawn) [I-1060, AzAc-PL3-Asp-Npg-B5-Asp-Asp-Ala-Ala-Phe-Thr-PyrS2-2C1F-BztA-dThr-NH2], in “CHI Log D procedure” (pH 7.4), the chromatographic logD is 2.6. Moreover, in “Solubility in PBS”, the “Solubility” value was found to be 10 µM (≈ 19.5 µg/mL). The compound further returned an IC50 in series [1] (setting [3]) of 38 nM.

The compound `CC(=O)N1CCC[C@]12CC=CCCCC1(CCCC=CCCCOC(=O)N3CC[C@@](C(=O)N[C@@H](Cc4ccccc4Cl)C(=O)N[C@@H](Cc4csc5ccccc45)C(=O)N[C@@H](CCC(N)=O)C(N)=O)(C3)NC(=O)[C@H](CC(C)C)NC(=O)[C@H](Cc3ccccc3)NC(=O)[C@H](C)NC(=O)[C@H](C)NC(=O)[C@H](CCC(=O)O)NC(=O)[C@H](CC(=O)O)NC1=O)NC(=O)[C@H](CC(C)(C)C)NC(=O)[C@H](CC(=O)O)NC2=O` (stereo partly drawn) [I-1063, Ac-PL3-Asp-Npg-B5-Asp-Glu-Ala-Ala-Phe-Leu-PyrS2-2C1F-BztA-Gln-NH2] yielded a chromatographic logD in “CHI Log D procedure” (pH 7.4, CHI Log D) of 1.64. Further, the Solubility in “Solubility in PBS” (Solubility (uM)) was 43 µM (≈ 84.3 µg/mL). The IC50 in series [1] (read-out: beta-Catenin FP IC50) turned out to be 471 nM.

For `CC(=O)N1CCC[C@]12CC=CCCCC1(CCCC=CCCCOC(=O)N3CC[C@@](C(=O)N[C@@H](Cc4ccccc4Cl)C(=O)N[C@@H](Cc4csc5ccccc45)C(=O)N[C@@H](CO)C(N)=O)(C3)NC(=O)[C@H](CC(C)C)NC(=O)[C@H](Cc3ccccc3)NC(=O)[C@H](C)NC(=O)[C@H](C)NC(=O)[C@H](CC(=O)O)NC(=O)[C@H](CC(=O)O)NC1=O)NC(=O)[C@H](CC(C)(C)C)NC(=O)[C@H](CC(=O)O)NC2=O` (stereo partly drawn) [I-1064, Ac-PL3-Asp-Npg-B5-Asp-Asp-Ala-Ala-Phe-Leu-PyrS2-2C1F-BztA-Ser-NH2], the “CHI Log D” value in the series “CHI Log D procedure” (pH 7.4) is on record as 1.967. Besides, the “Solubility” value in the series “Solubility in PBS” stood at 29 µM (≈ 55.2 µg/mL). For the same compound, the IC50 in series [1] (setting [4]) and in series [1] (read-out: beta-Catenin FP IC50) was 414 nM each time.

`CC(=O)N1CCC[C@]12CC=CCCCC1(CCCC=CCCCOC(=O)N3CC[C@@](C(=O)N[C@@H](Cc4ccccc4Cl)C(=O)N[C@@H](Cc4csc5ccccc45)C(=O)N[C@@H](CO)C(N)=O)(C3)NC(=O)[C@H](CC(C)C)NC(=O)[C@H](Cc3ccccc3)NC(=O)[C@H](C)NC(=O)[C@H](C)NC(=O)[C@H](CCC(=O)O)NC(=O)[C@H](CC(=O)O)NC1=O)NC(=O)[C@H](CC(C)(C)C)NC(=O)[C@H](CC(=O)O)NC2=O` (stereo partly drawn) [I-1066, Ac-PL3-Asp-Npg-B5-Asp-Glu-Ala-Ala-Phe-Leu-PyrS2-2C1F-BztA-Ser-NH2]: the “CHI Log D” value in the series “CHI Log D procedure” (pH 7.4) came out at 2.024. Also, the “Solubility” value in the series “Solubility in PBS” was 10 µM (≈ 19.2 µg/mL). The IC50 in series [1] (setting [4]) and in series [1] (read-out: beta-Catenin FP IC50) was 789 nM each time.

Take `CC(=O)N1CCC[C@]12CC=CCCCC1(CCCC=CCCCOC(=O)N3CC[C@@](C(=O)N[C@@H](Cc4ccccc4Cl)C(=O)N[C@@H](Cc4csc5ccccc45)C(=O)N[C@H](C(N)=O)[C@@H](C)O)(C3)NC(=O)[C@H](CC(C)C)NC(=O)[C@H](Cc3ccccc3)NC(=O)[C@H](C)NC(=O)[C@H](C)NC(=O)[C@H](CC(=O)O)NC(=O)[C@H](CC(=O)O)NC1=O)NC(=O)[C@H](CC(C)(C)C)NC(=O)[C@H](CC(=O)O)NC2=O` (stereo partly drawn) [I-1068, Ac-PL3-Asp-Npg-B5-Asp-Asp-Ala-Ala-Phe-Leu-PyrS2-2C1F-BztA-Thr-NH2]: the “CHI Log D” value in the series “CHI Log D procedure” (pH 7.4) is 2.053. Besides, the “Solubility” value in “Solubility in PBS” came out at 13 µM (≈ 24.9 µg/mL). The IC50 in series [1] (setting [4]) and in series [1] (read-out: beta-Catenin FP IC50) was 950 nM each time.
